Patent publication US8288374B2, “Medicinal composition containing benzo[a]phenoxazine compound as the active ingredient for prevention or treatment of protozoal disease” (Hoshi University, priority 2008, dated 2012)
≈ marks a conversion by molar mass, not a printed value. Counter-ions that a name gives are not always drawn. Like-named read-outs stand apart in the source and are kept apart here.

Tests used:
[1] = test system: Rat L6 cells; test: Growth inhibition test of rat L6 cells; assay type: cell-based; conditions: Table 2, unit inferred, 72 hours, read-out: Cytoxicity L6
Experimental: Rat derived-L6 cells (rat skeletal myoblast cell) were used. A medium, RPMI1640 medium was supplemented so that L-glutamin (200 mM) is 1%, and fetal bovine serum 10%, and the medium was cultured under CO2 concentration 5%, at 37° C.
The compounds of the present invention and the control drugs to be used in the test were dissolved in DMSO, to make a test solution of a predetermined concentration.
Pre-culture was conducted and medium containing cells which have entered the logarithmic growth phase was taken to wells of a 96-well culture plate. Then, a test solution containing drug of a predetermined concentration or a drug-free DMSO was added. Test solutions were taken by duplicates.
Culture plate was cultured for 72 hours in an incubator, to test the growth inhibition activity. Test was conducted as follows. 10 μL of Alamar Blue aqueous solution was added to each well, and the resultant was further cultured for 2 hours. Next, the culture plate was placed on a fluorescent micro-plate reader (Spectramax Gemeni XS; US Molecular Device), radiated at an excited wavelength of 536 nm. Fluorescent intensity was measured at 588 nm, and residual rate of L6 cells of the test solution added group, and that of the control was calculated.
Growth inhibition rate (%)={(C−A)/(B−A)}×100 • A: Primary cell count • B: cell count of control, 3 days after • C: cell count of wells added with a sample, 3 days after 4. Determination of Drug Efficacy Against Chloroquine Resistant-Plasmodium

[2] = test system: Plasmodium falciparum K1; test: Chloroquine resistant-Plasmodium falciparum growth inhibition screening test; assay type: cell-based; conditions: for Selective toxicity: EC50 against rat L6 cells / EC50 against P. falciparum K1; for EC50: Plasmodium falciparum, Table 2, unit inferred, chloroquine-resistant K1 strain, read-out: P. falciparum K1
Experimental: In the present experiment, protozoa of plasmodium falsiparum K1 strain was used. RPMI-1640 medium sterilized with a filter to which human serum was added to be 5%, was used in the experiment. Malarial parasites were cultured under 3% O2 concentration, 4% CO2 concentration, 93% N2 concentration, and at a temperature of 37° C.
The compounds of the present invention to be used in the present test and the positive control drug (chloroquine) were dissolved in DMSO to make a test solution of a predetermined concentration. Cultured malaria parasite infected-erythrocytes were collected by centrifugation, and diluted with non-infected erythrocyte so that the early infection rate was 0.15%. Hematocrit level at that time was 2.5%.
200 μL of malaria infected solution was added to wells of a 96-well culture plate, and adjusted by adding a test solution containing drug of a predetermined concentration or a drug-free DMSO. Test solutions were taken by duplicates.
[…] […] Radiation intensity was measured with a beta plate liquid scintillation counter (Wallac), and malarial parasite infection rates of the test solution added group and the control group were calculated.
Growth inhibition rate (%)={1−(b−a)/(c−a)}×100 • a: early infection rate • b: infection rate when test solution was added • c: infection rate of the control 3. Growth Inhibition Test of Rat L6 Cells
Antimalarial activity of a sample was estimated from EC50 values of the sample against chloroquine resistant-Plasmodium falciparum and rat L6 cells. […] It means that the larger the value of the selection toxity, the less the risk of the side effect is. Chemotherapy index=(EC50 value of a sample against rat L6 cells)/(EC50 value of a sample against chloroquine resistant-Plasmodium falsiparum)

[3] = test system: Plasmodium berghei NK65 strain; test: Cure test by oral administration to mice infected with malaria; assay type: in vivo; conditions: for inhibition in vivo at 100 mg/kg: Plasmodium berghei; for Days of survival: mean days to death minus that of control mice; for Effectiveness in the in vivo malaria test, in words: oral administration to mice infected with rodent malaria
Experimental: In this experiment, rodent malaria parasites (the Plasmodium berghei NK65 strain) were used.
The infected blood to be used was subcultured in ICR female SPF mice infected by intraperitoneal or tail vein administration at 4 to 6 weeks old (20 to 26 g). […] Thereafter, based on the number of red cells (cells/ml) and the rate of infection by the protozoans, the blood was diluted with phys'iological saline such that a density of […] malaria parasites/1 ml dose was attained. This was used for infection of uninfected mice (ICR female mice, 5 weeks old) in an amount of 0.2 ml/20 g body weight, through the tail vein (Day-0). The compound used in the test was dissolved in 10% DMSO solution (a mixture of 1 ml of DMSO and 9 ml of 5% glucose solution).
Each group contained 4 mice, and the compound was orally administered to the mice 24 hours after their infection with malaria (Day-1), in an amount calculated such that 100 mg of the compound was administered per 1 kg of the body weight of a mouse. On the other hand, in terms of cases in which the amount was calculated such that 30 mg of the compound was administered per 1 kg of the body weight of a mouse, the oral administration was carried out a total of three times, that is, 24 hours (Day-1), 48 hours (Day-2) and 72 hours (Day-3) after the infection of malaria.
Blood was collected from the tails of each mouse 96 hours (Day-4) and 144 hours (Day-6) after the infection with malaria, and thin blood films were prepared. Under the microscope, the numbers of infection of malaria parasites in the group to which the compound was administered and the control group (to which the compound was not administered) were measured, and the rates of infection with malaria parasites (Parasitemia) were calculated.
From the rate of infection with malaria parasites calculated as above, the cure rate (Suppression) in the case of administration of the drug was calculated according to the following equation. Cure rate: Suppression (%)=(B−A)/B×100
A: Rate of infection with the protozoans in a mouse to which the present test compound was administered
B: Rate of infection with the parasites in a control mouse (to which the compound was not administered) Days of survival: MSD (day)=C−D
C: the average number of days from the date of infection with malaria to the date of death in the mice to which the present test compound was administered
D: The average number of days from the date of infection with malaria to the date of death in the 4 individuals of control mice (to which the compound was not administered)
Further, by observation of changes in the body weight, hair glossiness and the like of each mouse, side effects such as acute toxicity due to administration of the compound were evaluated.

[4] = 96 h, oral, 100 mg/kg, 1 dose, infected ICR mice, suppression vs control, read-out: Cure rate (%) Day-4
[5] = 144 h, oral, 100 mg/kg, 1 dose, infected ICR mice, suppression vs control, read-out: Cure rate (%) Day-6
[6] = po, 96 h, read-out: Cure rate (%) Day-4
[7] = po, 144 h, read-out: Cure rate (%) Day-6

| Compound | melting point [°C] | inhibition in vivo at 100 mg/kg [3, 4] [%] | inhibition in vivo at 100 mg/kg [3, 5] [%] | Days of survival ([3]; oral, 100 mg/kg, 1 dose) [days] | Effectiveness in the in vivo malaria test, in words [3] | other results |
| --- | --- | --- | --- | --- | --- | --- |
| CCN(CC)c1cc(C)c2c(c1)OC1=CC(Nc3ccccn3)c3ccccc3C1=N2 (stereo not shown) (as salt: HCl) [Compound 1a, N,N-Diethyl-11-methyl-5-(pyridin-2-ylamino)-5H-benzo[a]phenoxazin-9-amine] | 167.2 to 168.4 |  |  |  |  |  |
| CCN(CC)c1cc(C)c2c(c1)OC1=CC(Nc3cccnc3)c3ccccc3C1=N2 (stereo not shown) (as salt: HCl) [Compound 1b, N,N-Diethyl-11methyl-5-(pyridin-3-ylamino)-5H-benzo[a]phenoxazin-9-amine] | 161.6 to 163.1 |  |  |  |  |  |
| CCN(CC)c1cc(C)c2c(c1)OC1=CC(Nc3ccncc3)c3ccccc3C1=N2 (stereo not shown) (as salt: HCl) [Compound 1c, N,N-Diethyl-11-methyl-5-(pyridin-4-ylamino)-5H-benzo[a]phenoxazin-9-amine] | > 300 |  |  |  |  |  |
| CCCN(CCC)c1ccc2nc3c4ccccc4c(=Nc4ccncc4)cc-3oc2c1 [Compound 1D, N,N-Dipropyl-5-(pyridin-4-ylimino)-5H-benzo[a]phenoxazin-9-amine] | 215 to 216 |  |  |  |  |  |
| CCCCN(CCCC)c1ccc2nc3c4ccccc4c(=Nc4ccncc4)cc-3oc2c1 [Compound 1E, N,N-Dibutyl-5-(pyridin-4-ylimino)-5H-benzo[a]phenoxazin-9-amine] | 188 to 189 |  |  |  |  |  |
| CCN(CC)c1ccc2nc3c4ccc(Br)cc4c(=Nc4ccccn4)cc-3oc2c1 [Compound 1F, 3-Bromo-N,N-diethyl-5-(pyridin-2-ylimino)-5H-benzo[a]phenoxazin-9-amine] | 204 to 205 |  |  |  |  |  |
| CCN(CC)c1ccc2nc3c4ccccc4c(=Nc4cccnc4)cc-3oc2c1 [Compound 1N, N,N-Diethyl-5-(pyridin-3-ylimino)-5H-benzo[a]phenoxazin-9-amine] |  | 41 | 0 | 0 |  | EC50 [1]: 46.1 µg/mL (≈ 117 µM); Selective toxicity [2]: 5123; EC50 [2]: 0.009 µg/mL (≈ 0.0228 µM) |
| c1ccc(/N=c2/cc3oc4cc(N5CCOCC5)ccc4nc-3c3ccccc23)nc1 [Compound 1O, N-(9-Morphlino-5H-benzo[a]phenoxazin-5-ylidene)pyridin-2-amine] |  | 81 | 60 | 0.6 |  | EC50 [1]: 20.8 µg/mL (≈ 50.9 µM); Selective toxicity [2]: 1386; EC50 [2]: 0.015 µg/mL (≈ 0.0367 µM) |
| CCN(CC)c1ccc2nc3c4ccccc4c(=Nc4cc(C)nc5ccccc45)cc-3oc2c1 [Compound 1P, N,N-Diethyl-5-(2-methylquinoline-4-ylimino)-5H-benzo[a]phenoxazin-9-amine] | 229 to 230 |  |  |  |  | EC50 [1]: 6.6 µg/mL (≈ 14.4 µM); Selective toxicity [2]: 183; EC50 [2]: 0.036 µg/mL (≈ 0.0785 µM) |
| CCOC(=O)C(Cc1ccc(O)cc1)N=c1cc2oc3cc(N(CC)CC)ccc3nc-2c2ccccc12 (stereo not shown) [Compound 1Q, Ethyl 2-[9-(Diethylamino)-5H-benzo[a]phenoxazin-5-ylideneamino]-3-(4-hydroxyphenyl)propanoate] | 175 to 181 |  |  |  |  | EC50 [1]: 33.8 µg/mL (≈ 66.3 µM); Selective toxicity [2]: 751; EC50 [2]: 0.045 µg/mL (≈ 0.0883 µM) |
| CCN(CCNS(C)(=O)=O)c1cc(C)c2nc3c4ccccc4c(=Nc4cccnc4)cc-3oc2c1 [Compound 1T, N-Ethyl-N-(2-methansulfonamidylethyl)-11-methyl-5-(pyridine-3-ylimino)-5H-benzo[a]phenoxazin-9-amine] |  | 96.5 | 79.4 | 13.3 | excellent cure effects | EC50 [1]: 23.9 µg/mL (≈ 47.7 µM); Selective toxicity [2]: 2988; EC50 [2]: 0.008 µg/mL (≈ 0.0159 µM) |
| CCN(CC)c1ccc2nc3c4ccccc4/c(=N\c4ccccc4)cc-3oc2c1 [Compound 1U, reference compound] |  |  |  | 0.8 | effectiveness was hardly observed | inhibition in vivo at 100 mg/kg [3, 6]: 0%; inhibition in vivo at 100 mg/kg [3, 7]: 16.8% |
| CCN(CC)c1ccc2nc3c4ccccc4/c(=N\c4ccc(C)cc4)cc-3oc2c1 [Compound 1V, reference compound] |  |  |  | 0.8 | effectiveness was hardly observed | inhibition in vivo at 100 mg/kg [3, 6]: 0%; inhibition in vivo at 100 mg/kg [3, 7]: 11.4% |
| c1ccc2c(=Nc3ccncc3)cc3oc4cc(N5CCOCC5)ccc4nc-3c2c1 [Compound 1e, 9-Morpholino-5-(pyridin-4-ylimino)-5H-benzo[a]phenoxazine] | > 300 |  |  |  |  |  |
| c1ccc2c(=Nc3ccncc3)cc3oc4cc(N5CCCCC5)ccc4nc-3c2c1 [Compound 1f, 9-(Piperidin-1-yl)-5-(pyridin-4-ylimino)-5H-benzo[a]phenoxazine] | 266.8 to 268.2 |  |  |  |  |  |
| CCN(CC)c1ccc2nc3c(cc(N)c4ccccc43)[o+]c2c1 [Nile blue A, reference compound] |  | 15 | 5 | 0.3 | did not show effectiveness |  |
| CCN(CC)c1ccc2nc3c4ccccc4c(=O)cc-3oc2c1 [Nile red, reference compound] |  | 16 | 3 | 0 | did not show effectiveness |  |
| CCNc1cc2[o+]c3cc(NCC)c4ccccc4c3nc2cc1C [Oxazin 170 perchlorate, reference compound] |  | 40 | 57 | 1.3 | did not show effectiveness |  |
